Here are results for one molecule from article PMC10666548, “Identification of the bacterial metabolite aerugine as potential trigger of human dopaminergic neurodegeneration” (Environment international, 2023).

For series [1], the system named is C. elegans strains BY200 and Punc-25. In words: C. elegans lethality analysis (eight day survival test). The class given is in vivo, Caenorhabditis elegans. The following applies: L4 larval stage, 8, 40 and 100 μM, up to 8 days. The method, then: The strain BY200 Pdat-1::gfp (vtIs1), dat-1::GFP(vtls1) was kindly provided by the Blakely laboratory, Vanderbilt University Medical Center and the strain Punc-25:GFP was obtained from the Caenorhabditis Genetics Center (CGC, University of Minnesota, Minneapolis, MN, USA). The worms were maintained in nematode growth medium (NGM) plates that contain: 3 g/l NaCl, 17 g/l agar, 2.5 g/l peptone, 1 mM CaCl2, 5 mg/l cholesterol, 1 mM MgSO4, 25 mM potassium phosphate buffer (pH 6.0) with 1.25 ml nystatin and 50 mg/l streptomycin sulfate) and Escherichia coli (E. coli) OP50 strain was used as food ([Brenner, 1974]). Synchronization of worms was carried out using extraction solution (0.2% NaOCl, 0.5 M NaOH, in distilled water). The first larval stage (L1) population were obtained by isolating eggs with a 30% sucrose gradient, washed with sterile water, and resuspended in M9 buffer (42 mM Na2HPO4, 22 mM KH2PO4, 8.5 mM NaCl, and 1 mM MgSO4) ([Sulston and Hodgkin, 1998]).
For the lethality analysis, 40 to 60 BY200 and P unc-25 worms at L4 larval stage were exposed to vehicle or aerugine (8, 40 and 100 μM) in OP50-seeded NGM plates from day 0 until day 8. […] Moreover, worms were transferred to fresh plates for the first three days of treatment, which coincide with the egg laying days to avoid mixing of different generations. […]

Series [2] can be described thus: Cytotoxicity to mature (d6) LUHMES neurons, calcein-AM & H-33342 high content imaging. The class given is cell-based, human. The following applies: human, mature LUHMES d6, 24 h exposure; read-out: EC50 (half-maximal cytotoxic potency), cell viability. The method, then:
(§1) For toxicity assessment of mature LUHMES neurons, precursor cells were pre-differentiated for 2 days in cell culture flasks pre-coated as described above and differentiation medium. Then, 45′000 cells per well were seeded in differentiation medium into standard 96-well plates pre-coated as described above. They were incubated at 37 °C and 5% CO2 for 4 days before compound treatment. At this time, cells were >99% post-mitotic and had established an extensive neurite network ([Scholz et al., 2011]) The cell viability was assessed via the Calcein/Hoechst readout, the LDH assay and the resazurin reduction assay.
(§2) Neurite area (NA) and viability (V) were assessed as described previously ([Stiegler et al., 2011]). In brief, cells were stained with 1 μM calcein-AM and 1 μg/ml H-33342 for 30 min at 37 °C and 5% CO2. Image acquisition was performed using an Array-Scan VTI HCS Reader (Cellomics, PA, USA) equipped with a Hamamatsu ORCA-ER camera. 10 fields per well were imaged with 2 channels at 20x magnification (2×2 pixel binning). Excitation/emission wavelengths of 365 ± 50/535 ± 45 nm were used for Hoechst detection in channel 1 and 474 ± 40/535 ± 45 nm were used for calcein detection in channel 2.
(§3) Nuclei were identified in channel 1 depending on intensity, area, size and shape. Their outlines were expanded by 3.2 μm to define a virtual cell soma area (VCSA), which was bigger than the average cell soma to prevent false positive NAs. All calcein-positive pixels were defined as viable cellular structures (VCSs). The NA was automatically calculated by excluding the VCSAs from the VCSs. Furthermore all nuclei co-localizing with VCSs were defined as alive.

For series [3], the system named is human dopaminergic neurons (LUHMES cells). The description is as above. The class given is cell-based. The following applies: for EC50: mature LUHMES d6, 24 h exposure, read-out: EC50 (half-maximal cytotoxic potency), cell viability. The method, then:
as §1, §2, §3

The subject of series [4] is dopaminergic system of C. elegans BY200. In words: Basal slowing response (BSR) behavioral assay. The class given is in vivo, Caenorhabditis elegans. The following applies: L4 BY200 worms treated 2 days. The method, then:
The basal slowing response (BSR) is a behavioral assay that assesses the functionality of the worms’ DAergic system. For this, worms were washed three times with S-basal buffer (100 mM NaCl, 5 mg/L cholesterol, 50 mM potassium phosphate buffer, pH 6.0) to remove residual bacteria, and placed on the center of a 60-mm NGM plates in the absence or presence of an OP50 bacteria ring. After habituation (5 min), the number of body bends of each worm was counted during 20 s to determine its immobility rate. The results were expressed as the difference (Δ) between the number of body bends in the absence (a) and presence (p) of bacteria on fresh plates (Δ = a-p). […]
Fig. 5. […] They were exposed to different aerugine concentrations and counted every 24 h. […] Differences on a given day were analyzed by ANOVA and found to be non-significant. […] The GFP-labelled neurons of 20–30 worms per condition were analyzed and scored for specific neurodegeneration. […] These scores were assessed to quantify the dopaminergic neurodegeneration caused be aerugine in vivo. C Worms with wild type morphology (score 0) were counted. […] D The degeneration scores exemplified in B were quantified. […] E The “basal slowing response” was assessed as proxy for the functionality of the worms’ dopaminergic system. It was measured in L4 larval stage BY200 worms treated for 2 days with aerugine. […]

By EC50 is commonly meant the concentration at which the effect is half-maximal.

Structures are written as SMILES. Entries after “also recorded” stand apart in the source; their conditions may differ. Like-named read-outs stand apart in the source and are kept apart here.

With `OCC1CSC(c2ccccc2O)=N1` (stereo not drawn) [aerugine, 2-[4-(hydroxymethyl)-4,5-dihydro-1,3-thiazol-2-yl]phenol], the “general survival of worms” value in series [1] was “neither triggered death during the first 2 days; also recorded: not affected”. For the same molecule, the EC50 at 24 h in series [2] was 4.1 ± 0.8 µM. In addition, the “cytotoxicity to DAergic neurons (viability)” value in series [3] (d6 LUHMES, 24 h (24 h and 48 h for purified compounds)) is “cytotoxic to DAergic neurons in a time- and concentration-dependent manner”. The “effect on neurite area” value in series [3] (d6 LUHMES, 24 h assay setup) was “affected neurites to the same extent and at similar concentrations as cell bodies”. Besides, the cytotoxic potency range result in series [3] (d6 LUHMES, purified compound) was “low μM range”. Moreover, the results for the EC50 in series [3] (listed as Aerugine) and in series [3] were 3 to 4 µM and 3.1 ± 0.7 µM, respectively. Also, in series [3] (mature vs proliferating LUHMES), the “increase of aerugine sensitivity by neuronal maturity state” value is “approximately three-fold”. Also, in series [4], the “basal slowing response (BSR)” value was “attenuated; also recorded: exerted functional dopaminergic toxicity”.
